Drawing on patent publication US5053408A, “Hexitol derivatives having vasodilative activity” (Kyowa Hakko Kogyo Co., Ltd., priority 1989, dated 1991), this text covers minimal effective dose, MLD i.p. and MLD p.o. for five compounds.

Data set [1] concerns coronary vasospasm model (lysine-vasopressin). Kind of data set: Effects on coronary vasospasm model (lysine-vasopressin test), inhibition of ST-segment elevation. The data set is classed as in vivo, male Wistar rats. To be noted: Rattus norvegicus, lysine-vasopressin 0.3 I.U./kg iv, MED = minimum dose with depression rate of 20% or higher.
A further data set relates to male dd-mice. Kind of data set: Acute toxicity. Conditions: mouse, in vivo, 10080 min; for MLD i.p.: ip; for MLD p.o.: po. The procedure: The compounds were orally administered and intraperitoneally administered to male dd-mice weighing 20 to 25 g. […] was determined by observing the mortality for seven days after the administration.
[2] abbreviates: ip, 20 min before anesthetization, read-out: Coronary vasoconstriction model MED i.p.
Setting [3] is: po, 30 min before anesthetization, read-out: Coronary vasoconstriction model MED p.o.

Where a name gives a salt, the structure may show the parent alone. Read-outs that look alike come from different tables or passages of the source.

Consider `O[C@H]1CO[C@H]2[C@@H]1OC[C@@H]2N1CCN(CCCOc2ccccc2)CC1` [Compound 102, 5-Deoxy-5-[4-(3-phenoxypropyl)piperazin-1-yl]-1.4;3.6-dianhydro-L-iditol hydrochloride], for which the minimal effective dose in data set [1] (setting [2]) is < 25 mg/kg. For the same compound, in data set [1] (setting [3]), the minimal effective dose was < 30 mg/kg. Also, in the data set with male dd-mice, the MLD i.p. is > 100 mg/kg and the MLD p.o. is listed as > 300 mg/kg.
Take `O=C(c1cccs1)N1CCN([C@H]2CO[C@H]3[C@@H]2OC[C@@H]3O[N+](=O)[O-])CC1` [Compound 111, 5-Deoxy-5-[4-(thiophen-2-yl)carbonylpiperazin-1-yl]-1.4;3.6-dianhydro-L-iditol 2-nitrate hydrochloride]: the minimal effective dose in data set [1] (setting [3]) was < 30 mg/kg. For the same compound, in the data set on male dd-mice, the MLD i.p. was > 100 mg/kg and the MLD p.o. is recorded as > 300 mg/kg.
`O=C(c1ccoc1)N1CCN([C@H]2CO[C@H]3[C@@H]2OC[C@@H]3O[N+](=O)[O-])CC1` [Compound 112, 5-Deoxy-5-[4-(furan-3-yl)carbonylpiperazin-1-yl]-1.4;3.6-dianhydro-L-iditol2-nitrate hydrochloride]: the minimal effective dose in data set [1] (setting [3]) was < 30 mg/kg. In addition, in the data set on male dd-mice, the MLD i.p. is > 100 mg/kg and the MLD p.o. was > 300 mg/kg.
For `O=C(c1cccnc1)N1CC[N+]([O-])([C@H]2CO[C@H]3[C@@H]2OC[C@@H]3O[N+](=O)[O-])CC1` [Compound 113, 5-Deoxy-5-[4-(pyridin-3-yl)carbonylpiperazin N^1-oxid-1-yl]-1.4;3.6-dianhydro-L-iditol 2-nitrate hydrochloride], the minimal effective dose in data set [1] (setting [2]) is < 25 mg/kg. In addition, in the data set with male dd-mice, the MLD i.p. is listed as > 100 mg/kg and the MLD p.o. is > 300 mg/kg.
`O=C(c1ccc(O)nc1)N1CCN([C@H]2CO[C@H]3[C@@H]2OC[C@@H]3O[N+](=O)[O-])CC1` [Compound 114, 5-Deoxy-5-[4-(6-hydroxypyridin-3-yl)carbonylpiperazin-1-yl]-1.4;3.6-dianhydro-L-iditol 2-nitrate hydrochloride]: in data set [1] (setting [3]), the minimal effective dose is < 30 mg/kg. Moreover, in the data set on male dd-mice, the MLD i.p. is > 100 mg/kg and the MLD p.o. is listed as > 300 mg/kg.
